The source of these data is paper PMC8624998, “Synthesis and Antiproliferative Evaluation of 3-Chloroazetidin-2-ones with Antimitotic Activity: Heterocyclic Bridged Analogues of Combretastatin A-4” (Pharmaceuticals, 2021).

The term GI50 denotes the concentration that inhibits growth by half. The term IC50 denotes the concentration at which inhibition is half-maximal.

The test system of one assay is SK-MEL-5. The assay is described as follows: NCI-60 5 dose screen, Melanoma. The format is cell-based. Conditions: Homo sapiens.
For a further assay, the system named is SK-MEL-2. Kind of assay: NCI-60 5 dose screen, Melanoma. The following applies: Homo sapiens. The format is cell-based.
A further assay deals with NCI-H226. Kind of assay: NCI-60 5 dose screen, NSC Lung Cancer. The format is cell-based. The following applies: Homo sapiens.
A further assay deals with A549/ATCC. The assay is described as follows: NCI-60 5 dose screen, NSC Lung Cancer. The format is cell-based. Conditions: Homo sapiens.
Assay [1] relates to purified bovine brain tubulin. The assay is described as follows: In vitro tubulin polymerisation assay. The following applies: for Fold-Reduction of Vmax of tubulin polymerisation: 10 µM; for Vmax at 10 µM: 10 µM compound, tubulin 3 mg/mL, vehicle 0.0069.
In the next assay the test system is LOX IMV1. Kind of assay: NCI-60 5 dose screen, Melanoma. The class given is cell-based. Conditions: Homo sapiens.
The subject of another assay is 786-0. Kind of assay: NCI-60 5 dose screen, Renal Cancer. The format is cell-based. Conditions: Homo sapiens.
In a further assay the test system is MDA-MB-468. The assay is described as follows: NCI-60 5 dose screen, Breast Cancer. The following applies: Homo sapiens. The class given is cell-based.
A further assay deals with SW480 cells. The assay is described as follows: Cell viability assay, antiproliferative activity. The class given is cell-based, human. Here is the method: […]. The corresponding values for 10e in these cell lines were 161 nM (HL-60), 55 nM (SW480) and 135 nM (HT-29). […] […]. SW480 colon cells expressed low levels of the UDP-glucuronosyltransferase (UGT) protein compared to expression levels in HT-29 cells. […] […].
The human breast carcinoma cell line MCF-7 was purchased from the European Collection of Animal Cell Cultures (ECACC). Triple negative breast cancer Hs578T cells and its invasive variant Hs578Ts(i)8 were a kind gift from Dr. Susan McDonnell, School of Chemical and Bioprocess Engineering, University College Dublin. U266 cells were a gift from Dr. Tony McElligott, School of Medicine, St James’s Hospital, Trinity College Dublin. HT-29 cells were purchased from the European Collection of Cell Cultures (originating from a human adenocarcinoma of the colon). The human breast carcinoma cell line MDA-MB-231 and the HL-60 cells derived from a patient with acute myeloid leukaemia were both obtained from ECACC (Salisbury, UK). The SW-480 cells were a kind gift from Dr. Brian Flood, School of Biochemistry and Immunology, Trinity College Dublin. HEK-293T (normal epithelial embryonic kidney cells) were cultured in Dulbecco’s Modified Eagle’s Medium (DMEM) with GlutaMAXTM-I in the absence of non-essential amino acids. Human breast cancer MCF-7 cells and multiple myeloma U266 cells were cultured in Minimum Essential Media (MEM) with GlutaMAX™-I, supplemented with 1% (v/v) non-essential amino acids, 10% 2(v/v) foetal bovine serum (FBS) and 1% (v/v) penicillin/streptomycin 5000 U/mL. MDA-MB-231 cells were maintained in DMEM supplemented with 10% (v/v) foetal bovine serum, 2 mM L-glutamine and 100 μg/mL penicillin/streptomycin (complete medium). Colon cancer HT-29 and SW-480 and triple negative breast cancer Hs578T and its invasive variant Hs578T8i were cultured in DMEM with GlutaMAX™-I, with the same supplement in the absence of non-essential amino acids. Leukaemia HL-60 cancer cells were cultured in Roswell Park Memorial Institute Media (RPMI-1640) with GlutaMAX™-I, supplemented with 10% FCS media, and 100 μg/mL penicillin/streptomycin as above. Cell numbers were monitored using a haemocytometer. Cell culture flasks were incubated in a humidified incubator (5% CO2/95% air) at 37 °C. All cell lines were sub-cultured three times per week with trypsinisation using TrypLE Express (1X) required for adherent cell lines.
. All stock solutions and serial dilution in ethanol/DMSO were stored at -20 °C. All cells were seeded at a density of 2.5 × 10^4 cells/mL in a 96-well plate (200 μL per well). The cells were incubated in a […] atmosphere at 37 °C for 24 h, then treated with test compound (2 μL of stock solutions per 200-microlitre well) in ethanol to obtain a concentration range of 1 nM–200 μM for the study. The plates were then re-incubated for a further 72 h. Control wells contained an equivalent volume of the vehicle ethanol or DMSO (1% v/v). MTT cell viability assay: The culture medium was removed, and the cells were washed with phosphate buffered saline (PBS, […]). MTT (dissolved in PBS, […]) was added to obtain a final concentration of MTT (1 mg/mL). Cells were incubated at 37 °C for 3 h in the dark. Solubilisation was commenced by the addition of DMSO ([…]) and the cells were maintained at 20 °C in the dark for 20 min before reading the absorbance to ensure complete colour diffusion. The absorbance value of control cells (no added compound) was set to 100% cell viability and absorbance versus cell density per well was determined to assess cell viability using Graph-Pad Prism software. AlamarBlue cell viability assay: Cells were seeded in 96-well plates (e.g., MCF-7, 5 × 10^3 cells/well) and (HT-29 cells, 1 × 10^3 cells/well) and (HL-60 cells, 1 × 10^4 cells/well) with a total volume per well of 200 µL. After 24 h, cells were treated in triplicate with serial dilutions of CA-4 or β-lactam analogues (0.001–100 μM), medium alone or vehicle (1% ethanol (v/v)). […]

The test system of the next assay is HS 578T. Kind of assay: NCI-60 5 dose screen, Breast Cancer. The format is cell-based. The following applies: Homo sapiens.
For the next assay, the system named is NCI-H460. Kind of assay: NCI-60 5 dose screen, NSC Lung Cancer. The format is cell-based. The following applies: Homo sapiens.
The test system of a further assay is SNB-19. Kind of assay: NCI-60 5 dose screen, CNS Cancer. The format is cell-based. The following applies: Homo sapiens.
The next assay has as its system MDA-MB-231/ATCC. The assay is described as follows: NCI-60 5 dose screen, Breast Cancer. The format is cell-based. Conditions: Homo sapiens.
Another assay has as its system NCI-H23. Kind of assay: NCI-60 5 dose screen, NSC Lung Cancer. The class given is cell-based. Conditions: Homo sapiens.
A further assay relates to U251. The assay is described as follows: NCI-60 5 dose screen, CNS Cancer. The format is cell-based. The following applies: Homo sapiens, U-251.
The subject of a further assay is UACC-257. The assay is described as follows: NCI-60 5 dose screen, Melanoma. The class given is cell-based. Conditions: Homo sapiens.
The subject of another assay is NCI/ADR-RES. Kind of assay: NCI-60 5 dose screen, Ovarian Cancer. The class given is cell-based. The following applies: Homo sapiens.
The test system of another assay is BT-549. The assay is described as follows: NCI-60 5 dose screen, Breast Cancer. The following applies: Homo sapiens. The class given is cell-based.
Another assay relates to TK-10. Kind of assay: NCI-60 5 dose screen, Renal Cancer. The following applies: Homo sapiens. The format is cell-based.
The next assay concerns SK-OV-3. The assay is described as follows: NCI-60 5 dose screen, Ovarian Cancer. Conditions: Homo sapiens. The class given is cell-based.
The mark [2] stands for this setting: Homo sapiens, SW480, 72 h; read-out: SW480 IC50.
Where [3] appears, read: MDA-MB-231/ATCC, read-out: GI50.

Like-named read-outs stand apart in the source and are kept apart here.

For `COc1ccc([C@H]2[C@H](Cl)C(=O)N2c2cc(OC)c(OC)c(OC)c2)cc1` (relative stereo) [Compound 10e trans, Trans-3-chloro-1-(3,4,5-trimethoxyphenyl)-4-(4-methoxyphenyl) azetidin-2-one], the GI50 was found to be 31.2 nM with SK-MEL-5 (read-out: GI50); 45 nM in the assay on SK-MEL-2 (read-out: GI50); 55.7 nM in the assay with NCI-H226 (read-out: GI50); 78.5 nM with A549/ATCC (A549/ATCC, read-out: GI50); 67.6 nM with LOX IMV1 (read-out: GI50); 69.4 nM with 786-0 (read-out: GI50). Besides, the GI50 was 50.8 nM with MDA-MB-468 (read-out: GI50); 55.3 nM in the assay with HS 578T (HS 578T, read-out: GI50); 306 nM in the assay with NCI-H460 (read-out: GI50); 74.6 nM in the assay on SNB-19 (read-out: GI50); 68.6 nM with MDA-MB-231/ATCC (setting [3]); 31.2 nM in the assay on NCI-H23 (read-out: GI50). For the same compound, the GI50 was 37 nM in the assay on U251 (U251, read-out: GI50); 23.3 µM in the assay on UACC-257 (read-out: GI50); 35.3 nM in the assay on NCI/ADR-RES (read-out: GI50); 174 nM in the assay on BT-549 (read-out: GI50); 92.2 nM in the assay with TK-10 (read-out: GI50); 182 nM in the assay on SK-OV-3 (read-out: GI50). In assay [1], the “Fold-Reduction of Vmax of tubulin polymerisation” value was found to be 1.8 fold. Further, in assay [1], the “Vmax at 10 µM” value is reported as 0.0039 mOD/min. Moreover, in the assay on SW480 cells (setting [2]), the IC50 was 55 ± 4 nM.
As for `COc1ccc(/C=C\c2cc(OC)c(OC)c(OC)c2)cc1O` [CA-4, Combretastatin A-4], the “Vmax at 10 µM” value in assay [1] was 0.0022 mOD/min. In the assay with SW480 cells (setting [2]), the IC50 stood at 3 ± 0.8 nM.
With `COc1ccc(C2C(Cl)C(=O)N2c2cc(OC)c(OC)c(OC)c2)cc1O` (stereo not drawn) [Compound 10n, 3-Chloro-4-(3-hydroxy-4-methoxy-phenyl)-1-(3,4,5-trimethoxyphenyl)azetidin-2-one], the IC50 with SW480 cells (setting [2]) was determined as 37 ± 5 nM.
As to `COc1ccc(C2N(c3cc(OC)c(OC)c(OC)c3)C(=O)C2(Cl)Cl)cc1O` (stereo not drawn) [Compound 11n, 3,3-Dichloro-4-(3-hydroxy-4-methoxyphenyl)-1-(3,4,5-trimethoxyphenyl)azetidin-2-one], the GI50 was determined as 22.5 nM in the assay with SK-MEL-5; 31.6 nM in the assay with SK-MEL-2; 36.8 nM with NCI-H226; 38.2 nM in the assay on A549/ATCC (A549); 41.5 nM in the assay on LOX IMV1; 41.2 nM with 786-0. Besides, the GI50 stood at 22.6 nM in the assay with MDA-MB-468; 42.8 nM in the assay on HS 578T (Hs-578T); 35.4 nM with NCI-H460; 45.7 nM in the assay on SNB-19; 31.6 nM in the assay with MDA-MB-231/ATCC (MDA-MB-231); 24.2 nM in the assay on NCI-H23. The GI50 in the assay with U251 was found to be 32.5 nM; with UACC-257, 0.158 µM; in the assay with NCI/ADR-RES, 26.5 nM; in the assay with BT-549, 39.7 nM; in the assay on TK-10, 126 nM; with SK-OV-3 it was 25.4 nM. Further, the “Fold-Reduction of Vmax of tubulin polymerisation” value in assay [1] was determined as 1.7 fold. Moreover, the “Vmax at 10 µM” value in [1] is 0.0041 mOD/min. In the assay with SW480 cells (Homo sapiens, SW480, 72 h, read-out: SW480 IC50), the IC50 came out at 44 ± 8 nM.
Take `CCSc1ccc(C2C(Br)C(=O)N2c2cc(OC)c(OC)c(OC)c2)cc1` (stereo not drawn) [Compound 16d, 3-Bromo-4-(4-(ethylthio)phenyl)-1-(3,4,5-trimethoxyphenyl)azetidin-2-one]: the GI50 with SK-MEL-5 (read-out: GI50) is 86.1 nM; with SK-MEL-2 (read-out: GI50), 484 nM; with NCI-H226 (read-out: GI50), 3110 nM; in the assay with A549/ATCC (A549/ATCC, read-out: GI50), 598 nM; with LOX IMV1 (read-out: GI50), 834 nM; with 786-0 (read-out: GI50), 340 nM. Also, the GI50 in the assay on MDA-MB-468 (read-out: GI50) was found to be 154 nM; in the assay on HS 578T (HS 578T, read-out: GI50), 229 nM; with NCI-H460 (read-out: GI50) it was 539 nM; in the assay on SNB-19 (read-out: GI50) it was 440 nM; with MDA-MB-231/ATCC (setting [3]), 488 nM; with NCI-H23 (read-out: GI50), 478 nM. Further, the GI50 with U251 (U251, read-out: GI50) is 345 nM; in the assay on UACC-257 (read-out: GI50), 14.3 µM; in the assay with NCI/ADR-RES (read-out: GI50) it was 125 nM; in the assay with BT-549 (read-out: GI50) it was 525 nM; with TK-10 (read-out: GI50) it was 14300 nM; in the assay on SK-OV-3 (read-out: GI50) it was 392 nM.
